Experimental data: patent US20210395226A1, “SUBSTITUTED ARYL COMPOUND AND PREPARATION METHOD THEREFOR AND USE THEREOF” (SICHUAN KELUN-BIOTECH BIOPHARMACEUTICAL CO., LTD., priority 2018, published 2021)
pKi: −log10 of the molar value.

What was measured:
[1] = target: T1, Adenosine A1 receptor (human) membrane (Homo sapiens, UniProt P30542); assay: Determination of competitive inhibition constant (Ki) for adenosine A1 receptor, [3H]-DPCPX radioligand; format: binding; conditions: 1.0 nM [3H]-DPCPX
T1 construct: purchased PerkinElmer ES-010-M400UA
T1 sequence (P30542 1-326): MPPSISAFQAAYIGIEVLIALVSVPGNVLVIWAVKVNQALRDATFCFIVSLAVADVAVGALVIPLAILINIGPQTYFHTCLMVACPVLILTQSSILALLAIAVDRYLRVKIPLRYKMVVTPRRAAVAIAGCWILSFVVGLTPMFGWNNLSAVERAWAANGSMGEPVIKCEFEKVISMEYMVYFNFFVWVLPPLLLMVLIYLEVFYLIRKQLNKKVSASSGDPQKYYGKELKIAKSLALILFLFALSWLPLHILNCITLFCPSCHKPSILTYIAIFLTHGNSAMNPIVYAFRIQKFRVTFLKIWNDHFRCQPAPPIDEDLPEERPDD
Description: (§1) Test Example 1: Determination of Competitive Inhibition Constant (Ki) for Adenosine A1 and A2a Receptors
[^3H]-DPCPX (PerkinElmer, NET974250UC),
Adenosine A1 receptor (human) membrane (PerkinElmer, ES-010-M400UA),
assay buffer for A1 (25 mM HEPES, 5 mM MgCl2, 1 mM CaCl2, 100 mM NaCl, pH7.4), used to dilute adenosine A1 receptor (human) membrane and [^3H]-DPCPX;
wash buffer for A1 (25 mM HEPES, 5 mM MgCl2, 1 mM CaCl2, 100 mM NaCl, pH7.4);
(§2) Adenosine A1 receptor membrane was diluted to 0.025 μg/μl with assay buffer for A1, and Adenosine A2a receptor membrane was diluted to 0.05 μg/μl with assay buffer for A2a, so as to obtain Adenosine A1 receptor membrane dilution and Adenosine A2a receptor membrane dilution.
(§3) The compound to be tested and CGS-15943 were diluted with DMSO, and 1 W of the compound to be tested, high value control (0.5% DMSO), low value control (1000 nM CGS-15943) were added to a 96-well plate, and 100 W of Adenosine A1 receptor membrane dilution (containing 2.5 μg of membrane) was added to each well of the 96-well plate to obtain A1 detection plate; following the same steps, 100 W of Adenosine A2a receptor membrane dilution (containing 5.0 μg membrane) was added to each well of the 96-well plate to obtain A2a detection plate.
(§4) To the A1 detection plate, 100 μl of radioisotope-labeled ligand [^3H]-DPCPX (diluted with assay buffer for A1, working concentration of which was 1.0 nM) was added; and to the A2a detection plate, 100 μl of radioisotope-labeled ligand [^3H]-CGS-21680 (diluted with assay buffer for A2a, working concentration of which was 6.0 nM) was added. The A1 and A2a detection plates were sealed with tape, and incubated at room temperature for 1 h and 2 h, respectively.
(§5) Unifilter-96 GF/C filter plates were prepared, 50 μl of 0.3% PEI was added to each well of the Unifilter-96 GF/C filter plates, and the resulting filter plates were incubated at room temperature for not less than 0.5 h.
(§6) After the incubation was completed, the reaction solution was transferred from the A1 detection plate and the A2a detection plate to two Unifilter-96 GF/C filter plates, and washed with pre-cooled wash buffer for A1 and wash buffer for A2a, and then the filter plates were dried, sealed at bottom, then 50 W of Microscint 20 fluid scintillation cocktail was added, and then the filter plates were sealed at top, and counted by MicroBeta2 Reader.
(§7) Inhibition rate %=100−(signal value of test well−signal average value of low value control)/(signal average value of high value control−signal average value of low value control)*100.
(§8) EXCEL XLfit was used to fit IC50.
(§9) The calculation formula for competitive inhibition constant (Ki) was: Ki=IC50/(1+concentration of isotope-labeled ligand/Kd), wherein Kd was the dissociation constant of the isotope-labeled ligand.

[2] = target: T2, ADORA2a/CHOK1 cells (Homo sapiens, UniProt P29274); assay: Inhibitory activity for ADORA2a/CHOK1 cells (cAMP detection, adenosine as agonist); format: cell-based; conditions: for inhibition at 0.1 µM: CHO-K1, 100 nM compound, read-out: Inhibition rate at 100 nM; for inhibition at 1 µM: CHO-K1, 1000 nM compound, read-out: Inhibition rate at 1000 nM
T2 construct: host or cells: CHO-K1
T2 sequence (P29274 whole entry): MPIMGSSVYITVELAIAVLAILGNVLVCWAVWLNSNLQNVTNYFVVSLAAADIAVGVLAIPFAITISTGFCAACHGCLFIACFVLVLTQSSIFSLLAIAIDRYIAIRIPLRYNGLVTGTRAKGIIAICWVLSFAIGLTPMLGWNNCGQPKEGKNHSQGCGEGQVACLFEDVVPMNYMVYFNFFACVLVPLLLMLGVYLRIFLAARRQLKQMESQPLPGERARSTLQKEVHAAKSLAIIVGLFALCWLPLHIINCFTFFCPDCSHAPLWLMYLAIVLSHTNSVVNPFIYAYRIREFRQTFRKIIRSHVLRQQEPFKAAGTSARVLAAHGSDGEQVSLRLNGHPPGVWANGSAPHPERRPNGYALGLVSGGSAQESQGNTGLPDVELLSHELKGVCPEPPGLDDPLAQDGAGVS
Description: Test Example 2: Study on Inhibitory Activity for ADORA2a/CHOK1 Cells
ADORA2a/CHOK1 cells (Cobai, CBP71017).
FBS was added to Ham's F-12 medium to a concentration of 10% (v/v), Zeocin was added to a final concentration of 200 μg/mL, and Hygromycin B was added to a final concentration of 100 μg/mL, and the resulting mixture was stored at 4° C. for later use.
A certain amount of adenosine was precisely weighed and placed into a 1.5 mL EP tube, then a certain volume of cell culture medium was added, the resulting mixture was incubated at 37° C. for dissolution, thereby a 10 mM stock solution was prepared. The stock solution was diluted with cell culture medium at 1:1000 to get 10 μM adenosine solution.
The compound to be tested was dissolved in DMSO to form a 10 mM stock solution, and the stock solution was stored in a refrigerator at 4° C. for later use. The stock solution was diluted with the 10 μM of adenosine solution to 2000 nM or 200 nM for later test.
(1) CHO-K1 cells stably expressing ADORA2A receptor were cultured in a 37° C., 5% CO2 cell incubator. When the cell confluence reached about 80%, the cells were digested by trypsin, dispersed and counted; (2) the cell concentration was adjusted to 6×10^5 cells/mL according to the counting results; (3) the cells was inoculated into a white 384-well cell culture plate at 5 μL per well (about 3000 cells/well).
All groups were provided with multiple wells, the adenosine-free cell culture medium was added to the wells of the Blank group (5 μL/well); 10 μM adenosine solution was added to the wells of the Agonist group (5 μL/well); the diluted compound was added to the wells of the test compound group (5 μL/well). After the addition of the compound was completed, the 384-well plate was centrifuged at 2500 rpm for 30 seconds to fully mix the compound and the medium, then placed in a 25° C. incubator and incubated for 30 min.
A certain volume of cAMP-d2 was taken, and diluted by adding Lysis & Detection Buffer at the ratio of 1:5 to prepare Solution A.
A certain volume of cAMP-Cryptate was taken, and diluted by adding Lysis & Detection Buffer at the ratio of 1:5 to prepare Solution B.
(2) After 30 min of incubation in step 2 was completed, addition of detection solution was carried out. The 384-well plate was taken out, 5 μL of Solution A was added to each well, and then 5 μL of Solution B was added to each well, then the 384-well plate was covered with sealing membrane, centrifuged at 2500 rpm for 30 s (to fully mix the detection solution and medium), and incubated in a thermostat at 25° C. for 1 h.
After the incubation, the 384-well plate was taken out, and detected by PHERA Star FS to read data, detection wavelength: 620 nm/665 nm.
inhibition rate %=(1−(RCompound−RBlank)/(RAgonist−RBlank))*100%
wherein, RCompound represented the R Value of the test compound group, RAgonist represented the R value of the Agonist group, and RBlank represented the R value of the Blank group.

[3] = target: T3, Adenosine A2a receptor (human) membrane (Homo sapiens, UniProt P29274); assay: Determination of competitive inhibition constant (Ki) for adenosine A2a receptor, [3H]-CGS-21680 radioligand; format: binding; conditions: for pKi: human A2a receptor membrane, 6.0 nM [3H]-CGS-21680, read-out: Ki(A2a); for Ki(A1)/Ki(A2a): selectivity ratio A1 over A2a
T3 construct: purchased PerkinElmer RBHA2AM400UA
T3 sequence (P29274 whole entry): as above
Description: as §1
Adenosine A2a receptor (human) membrane (PerkinElmer, RBHA2AM400UA),
assay buffer for A2a (50 mM Tris-HCl, 10 mM MgCl2, 1 mM EDTA, pH7.4), used to dilute adenosine A2a receptor (human) membrane (human origin) and [^3H]-CGS-21680; and
wash buffer for A2a (50 mM Tris-HCl, 154 mM NaCl, pH7.4).
as §2, §3, §4, §5, §6, §7, §8, §9

| Structure (SMILES) | pKi [1] | inhibition at 0.1 µM [2] [%] | inhibition at 1 µM [2] [%] | pKi [3] | Ki(A1)/Ki(A2a) [3] |
| --- | --- | --- | --- | --- | --- |
| Cc1ncnc2ccc(-c3c(C#N)cc(NC(=O)N4CCOCC4)nc3-c3ccc(F)cc3)cc12 [Compound 43, N-(4-cyano-6-(4-fluorophenyl)-5-(4-methylquinazolin-6-yl)pyridin-2-yl) morpholine-4-carboxamide] | 6.87 | 59.1 | 100 | 8.87 | 98.3 |
| Cc1ncnc2ccc(-c3c(-c4ccc(F)cc4)nc(NC(=O)N4CCOCC4)nc3C3CC3)cc12 [Compound 44, N-(4-cyclopropyl-6-(4-fluorophenyl)-5-(4-methylquinazolin-6-yl)pyrimidin-2-yl)morpholine-4-carboxamide] | 6.03 | 64.8 | 104 | 7.84 | 64.2 |
